Test results as given in ChEMBL document CHEMBL3751695, “Cationic lipid-conjugated hydrocortisone as selective antitumor agent” (Eur J Med Chem, 2016).
The source made the active and inactive calls. The calls are words filed in the database; no cut-off is given here.

Experiments:
MCF7 = assay: Cytotoxicity against human MCF7 cells after 72 hrs by MTT assay; assay type: functional, cell-based; settings: MCF7, 72 h
[1] = Cytotoxicity against mouse NIH/3T3 cells after 72 hrs by MTT assay; assay type: cell-based; settings: NIH3T3, 72 h
RAW264.7 [2] = assay: Cytotoxicity against mouse RAW264.7 cells after 72 hrs by MTT assay; assay type: cell-based; settings: RAW264.7, 72 h
A549 [3] = assay: Cytotoxicity against human A549 cells after 72 hrs by MTT assay; assay type: functional, cell-based; settings: A549, 72 h
[4] = Cytotoxicity against mouse B16F10 cells after 72 hrs by MTT assay; assay type: functional, cell-based; settings: B16-F10, 72 h
A549 [5] = assay: Induction of apoptosis in human A549 cells assessed as viable cells at 20 uM after 24 hrs by annexin-V-FITC/propidium iodide staining based flow cytometry (reference value: 87.96 %); assay type: functional; settings: A549, 24 h, read-out: Activity
B16-F10 [6] = assay: Induction of apoptosis in mouse B16F10 cells assessed as increased Bax expression at 20 uM after 36 hrs by western blot analysis; assay type: functional, cell-based
A549 [7] = assay: Induction of apoptosis in human A549 cells assessed as early apoptotic cells at 20 uM after 24 hrs by annexin-V-FITC/propidium iodide staining based flow cytometry (reference value: 1.41 %); assay type: functional
B16-F10 [8] = assay: Induction of apoptosis in mouse B16F10 cells assessed as increase in cleaved caspase 3 level at 20 uM after 36 hrs by western blot analysis; assay type: functional, cell-based
B16-F10 [9] = assay: Induction of apoptosis in mouse B16F10 cells assessed as increase in ratio of Bax/Bcl2 level at 20 uM after 36 hrs by western blot analysis (reference value: 0.2); assay type: functional
[10] = Induction of apoptosis in mouse NIH/3T3 cells assessed as viable cells at 20 uM after 24 hrs by annexin-V-FITC/propidium iodide staining based flow cytometry (reference value: 99.06 %); assay type: cell-based, NIH3T3; settings: read-out: Activity
[11] = Antitumor activity in mouse B16F10 cells xenografted in C57BL/J mouse assessed as increase in ratio of Bax/Bcl2 in tumor lysates at 6.11 mg/kg, ip by western blot analysis (reference value: 0.4); assay type: functional, Neoplasm, B16-F10
RAW264.7 [12] = assay: Induction of apoptosis in mouse RAW264.7 cells assessed as necrotic cells at 20 uM after 24 hrs by annexin-V-FITC/propidium iodide staining based flow cytometry (reference value: 1.81%); assay type: cell-based; settings: raw264.7, 24 h
[13] = Cytotoxicity against human SKOV3 cells after 72 hrs by MTT assay; assay type: functional, cell-based; settings: SK-OV-3, 72 h
B16-F10 [14] = assay: Induction of apoptosis in mouse B16F10 cells assessed as late apoptotic cells at 20 uM after 24 hrs by annexin-V-FITC/propidium iodide staining based flow cytometry (reference value: 4.47 %); assay type: functional
MDA-MB-231 [15] = assay: Induction of apoptosis in human MDA-MB-231 cells assessed as necrotic cells at 20 uM after 24 hrs by annexin-V-FITC/propidium iodide staining based flow cytometry (reference value: 5.40 %); assay type: functional
[16] = Induction of apoptosis in mouse NIH/3T3 cells assessed as late apoptotic cells at 20 uM after 24 hrs by annexin-V-FITC/propidium iodide staining based flow cytometry (reference value: 0.28 %); assay type: cell-based; settings: nih3t3, 24 h
RAW264.7 [17] = assay: Induction of apoptosis in mouse RAW264.7 cells assessed as late apoptotic cells at 20 uM after 24 hrs by annexin-V-FITC/propidium iodide staining based flow cytometry (reference value: 5.64 %); assay type: cell-based; settings: raw264.7, 24 h
B16-F10 [18] = assay: Induction of apoptosis in mouse B16F10 cells assessed as early apoptotic cells at 20 uM after 24 hrs by annexin-V-FITC/propidium iodide staining based flow cytometry (reference value: 0.46 %); assay type: functional
B16-F10 [19] = assay: Induction of apoptosis in mouse B16F10 cells assessed as necrotic cells at 20 uM after 24 hrs by annexin-V-FITC/propidium iodide staining based flow cytometry (reference value: 1.41 %); assay type: functional
B16-F10 [20] = assay: Antitumor activity against mouse B16F10 cells xenografted in C57BL/J mouse assessed as inhibition of tumor growth at 6.11 mg/kg, ip; assay type: functional, organism-based
[21] = Induction of apoptosis in mouse NIH/3T3 cells assessed as early apoptotic cells at 20 uM after 24 hrs by annexin-V-FITC/propidium iodide staining based flow cytometry (reference value: 0.43 %); assay type: cell-based; settings: nih3t3, 24 h
B16-F10 [22] = assay: Induction of apoptosis in mouse B16F10 cells assessed as increase in cytochrome C level at 20 uM after 36 hrs by western blot analysis; assay type: functional, cell-based
[23] = Cell cycle arrest in mouse B16F10 cells assessed as accumulation at subG0/G1 phase at 20 uM after 24 hrs by propidium iodide staining based flow cytometry (reference value: 40.7 %); assay type: functional; settings: B16-F10
Gallus gallus = species: Gallus gallus; assay: Antiangiogenic activity in chicken embryo assessed as inhibition of neovascularization at 40 uM after 4 hrs by microscopic analysis; assay type: functional, tissue-based
A549 [24] = assay: Induction of apoptosis in human A549 cells assessed as necrotic cells at 20 uM after 24 hrs by annexin-V-FITC/propidium iodide staining based flow cytometry (reference value: 3.23 %); assay type: functional
MDA-MB-231 [25] = assay: Induction of apoptosis in human MDA-MB-231 cells assessed as late apoptotic cells at 20 uM after 24 hrs by annexin-V-FITC/propidium iodide staining based flow cytometry (reference value: 3.25 %); assay type: functional
[26] = Cell cycle arrest in mouse B16F10 cells assessed as accumulation at G2/M phase at 20 uM after 24 hrs by propidium iodide staining based flow cytometry (reference value: 15.2 %); assay type: functional; settings: B16-F10
HeLa = assay: Cytotoxicity against human HeLa cells after 72 hrs by MTT assay; assay type: functional, cell-based
[27] = Cell cycle arrest in mouse B16F10 cells assessed as accumulation at S phase at 20 uM after 24 hrs by propidium iodide staining based flow cytometry (reference value: 5.4 %); assay type: functional; settings: B16-F10
B16-F10 [28] = assay: Induction of apoptosis in mouse B16F10 cells assessed as viable cells at 20 uM after 24 hrs by annexin-V-FITC/propidium iodide staining based flow cytometry (reference value: 93.66 %); assay type: functional; settings: B16-F10, 24 h, read-out: Activity
MDA-MB-231 [29] = assay: Induction of apoptosis in human MDA-MB-231 cells assessed as early apoptotic cells at 20 uM after 24 hrs by annexin-V-FITC/propidium iodide staining based flow cytometry (reference value: 0.58 %); assay type: functional
B16-F10 [30] = assay: Induction of apoptosis in mouse B16F10 cells assessed as increase in p53 expression at 20 uM after 36 hrs by […]; assay type: functional, cell-based
[31] = Induction of apoptosis in mouse NIH/3T3 cells assessed as necrotic cells at 20 uM after 24 hrs by annexin-V-FITC/propidium iodide staining based flow cytometry (reference value: 0.24 %); assay type: cell-based; settings: nih3t3, 24 h
[32] = Toxicity in C57BL/J mouse xenografted with mouse B16F10 cells assessed as mortality rate at 6.11 mg/kg, ip measured 45 days after tumor inoculation; assay type: organism-based, B16-F10; settings: in vivo, read-out: Activity
MDA-MB-231 [33] = assay: Induction of apoptosis in human MDA-MB-231 cells assessed as viable cells at 20 uM after 24 hrs by annexin-V-FITC/propidium iodide staining based flow cytometry (reference value: 90.77 %); assay type: functional; settings: MDA-MB-231, 24 h, read-out: Activity
A549 [34] = assay: Induction of apoptosis in human A549 cells assessed as late apoptotic cells at 20 uM after 24 hrs by annexin-V-FITC/propidium iodide staining based flow cytometry (reference value: 7.40 %); assay type: functional
RAW264.7 [35] = assay: Induction of apoptosis in mouse RAW264.7 cells assessed as early apoptotic cells at 20 uM after 24 hrs by annexin-V-FITC/propidium iodide staining based flow cytometry (reference value: 3.44 %); assay type: cell-based; settings: raw264.7, 24 h
[36] = Induction of apoptosis in mouse RAW264.7 cells assessed as viable cells at 20 uM after 24 hrs by annexin-V-FITC/propidium iodide staining based flow cytometry (reference value: 89.11 %); assay type: cell-based; settings: read-out: Activity
[37] = Cell cycle arrest in mouse B16F10 cells assessed as accumulation at G1 phase at 20 uM after 24 hrs by propidium iodide staining based flow cytometry (reference value: 38.8 %); assay type: functional; settings: B16-F10
[38] = Cytotoxicity against mouse B16F10 cells at 10 and 20 uM after 72 hrs by MTT assay; assay type: functional, B16-F10
[39] = Cytotoxicity against mouse B16F10 cells at 10 uM after 72 hrs by MTT assay in presence of 10 uM HYD; assay type: functional, B16-F10
[40] = Cytotoxicity against mouse B16F10 cells at 20 uM after 72 hrs by MTT assay in presence of 20 uM HYD; assay type: functional, B16-F10

SMILES | IC50 (MCF7) [µM] | IC50 [1] [µM] | IC50 (RAW264.7 [2]) [µM] | IC50 (A549 [3]) [µM] | IC50 [4] [µM] | viability at 20 µM (A549 [5]) [%] | Activity (A549 [7]) [%] | viability at 24 h, 20 µM [10] [%] | Activity (RAW264.7 [12]) [%] | Activity (B16-F10 [14]) [%] | Activity [16] [%] | Activity (RAW264.7 [17]) [%] | Activity (B16-F10 [18]) [%] | Activity (B16-F10 [19]) [%] | Activity [21] [%] | Activity (A549 [24]) [%] | viability at 20 µM (B16-F10 [28]) [%] | Activity [31] [%] | Activity (A549 [34]) [%] | Activity (RAW264.7 [35]) [%] | also measured
CCCCCCCCCCCCCC[N+](C)(CCCCCCCCCCCCCC)CCNC(=O)[C@@]1(O)CC[C@H]2[C@@H]3CCC4=CC(=O)CC[C@]4(C)[C@H]3[C@@H](O)C[C@@]21C | 13.6 | 4.85 | 8.77 | 3.3 | 16.2 |  |  |  |  |  |  |  |  |  |  |  |  |  |  |  | 
CCCCCCCCCC[N+](C)(CCCCCCCCCC)CCNC(=O)[C@@]1(O)CC[C@H]2[C@@H]3CCC4=CC(=O)CC[C@]4(C)[C@H]3[C@@H](O)C[C@@]21C | 3.7 | 3.77 | 6.2 | 12.6 | 4.7 |  |  |  |  |  |  |  |  |  |  |  |  |  |  |  | 
C[C@]12CCC(=O)C=C1CC[C@@H]1[C@@H]2[C@@H](O)C[C@@]2(C)[C@H]1CC[C@]2(O)C(=O)CO [HYDROCORTISONE] | > 20 | > 20 | > 20 | > 20 | > 20 | 88.4 | 1.55 | 99.5 | 0.69 | 9.14 | 0.16 | 3.13 | 0.77 | 1.04 | 0.01 | 2.97 | 89 | 0.1 | 7.09 | 2.39 | Activity (B16-F10 [6]): Active; Activity (B16-F10 [8]): Active; Ratio (B16-F10 [9]): 0.3; Ratio [11]: 0.8; IC50 [13]: > 20 µM; Activity (MDA-MB-231 [15]): 2.46%; inhibition (B16-F10 [20]): Active; Activity (B16-F10 [22]): Active; Activity [23]: 56.6%; inhibition (Gallus gallus): inactive; Activity (MDA-MB-231 [25]): 8.1%; Activity [26]: 17.9%; IC50 (HeLa): > 20 µM; Activity [27]: 4.6%; Activity (MDA-MB-231 [29]): 2.05%; Activity (B16-F10 [30]): Active; mortality at 1080 h [32]: 70%; viability at 20 µM (MDA-MB-231 [33]): 87.4%; viability at 24 h, 20 µM [36]: 93.8%; Activity [37]: 20.9%
CCCCCCCCCCCCCCCC[N+](C)(CCCCCCCCCCCCCCCC)CCNC(=O)OC(C)(C)C.[Cl-] |  |  |  |  |  | 81.7 | 2.7 | 94.9 | 0.86 | 12.56 | 0.96 | 4.18 | 1.75 | 4.16 | 0.94 | 1.65 | 81.5 | 3.23 | 13.95 | 3.66 | Activity [38]: 20%; Activity [39]: 20%; Activity [40]: 20%; viability at 24 h, 20 µM [36]: 91.3%
CCCCCCCCCCCC[N+](C)(CCCCCCCCCCCC)CCNC(=O)[C@@]1(O)CC[C@H]2[C@@H]3CCC4=CC(=O)CC[C@]4(C)[C@H]3[C@@H](O)C[C@@]21C | 4.6 | 3.36 | 4 | 3.4 | 3.4 |  |  |  |  |  |  |  |  |  |  |  |  |  |  |  | 
CCCCCCCC[N+](C)(CCCCCCCC)CCNC(=O)[C@@]1(O)CC[C@H]2[C@@H]3CCC4=CC(=O)CC[C@]4(C)[C@H]3[C@@H](O)C[C@@]21C | 6.7 | 7.4 | 12.7 | 17.6 | 4.5 |  |  |  |  |  |  |  |  |  |  |  |  |  |  |  | 
